Consider 1 compound from article PMC12706794, “Identification and Characterization of a Small-Molecule Inhibitor of the Pseudomonas aeruginosa SOS Response” (ACS Infectious Diseases, 2025).

Data set [1] deals with THP-1-derived macrophages. The experiment in a line: Cytotoxicity assessment by MTT assay, THP-1-derived macrophages. Conditions: combination of ciprofloxacin 0.5 μg/mL and A12 100 μg/mL, 3 h. The class given is cell-based, Human. How it is done:
A549 cells were seeded in flat-bottom 96-well plates at 5 × 10^4 cells/well. THP-1 monocytes were differentiated into macrophages using PMA as described above, rested in PMA-free medium, detached by trypsinization, and seeded at 5 × 10^4 cells/well. Plates were incubated overnight to allow cell attachment. […] Test medium was then removed and replaced with fresh medium containing 0.5 mg/mL 3-(4,5-dimethylthiazol-2-yl)-2,5-diphenyltetrazolium bromide (MTT). After a 2 h incubation, the medium was discarded, formazan crystals were solubilized with 100 μL of DMSO, and absorbance was measured at 570 nm using a spectrophotometer (Varioskan LUX Multimode Microplate Reader, Thermo Fisher Scientific). Cell viability was expressed as a percentage relative to the untreated controls.
In general terms: Tetrazolium assays rely on reduction of a dye to a coloured formazan, in cell work by metabolically active cells.

Data set [2] has as its target T1, RecAPa*-induced FlAsH-LexAPa CTD autoproteolysis (Pseudomonas aeruginosa, UniProt P37452).
T1 construct: 6His-SUMO (N, cleaved yes); made in house; host or cells: E. coli BL21(DE3)
In words: FP-based RecA*-induced LexA autoproteolysis in vitro assay. It is filed as biochemical, P. aeruginosa. How it is done:
A custom-made library of 318 small molecules (MW < 1000 Da) has been screened at two different concentrations (25 μg/mL and 125 μg/mL, corresponding to molar concentrations of 30–170 μM and 150–850 μM, respectively) on the P. aeruginosa SOS system by a previously validated fluorescence polμarization (FP)-based RecA*-induced LexA autoproteolysis in vitro assay. , 1 μM FlAsH-LexAPa ^CTD and 1 μM preactivated RecA*Pa were incubated with the screened chemical fragments for 1 h at 37 °C before measuring FP.
Then, the FP-based LexA autoproteolysis assay was repeated on the two hits, monitoring the full kinetics of LexA cleavage over a 1 h incubation and exploring a wide range of drug concentrations (10–1000 μM).
A custom-made library of 318 chemical fragments (25 mg/mL stock solutions in DMSO), provided by P. Kavaliauskas (Weill Cornell Medicine of Cornell University) was screened in vitro for their ability to inhibit RecAPa*-mediated LexAPa autoproteolysis by a Fluorescence Polarization (FP)-based assay. , Twenty microliter reactions were set up in Nunc 384-Well Black microplates, and final reaction mixtures included 1 μM FlAsH-LexAPa ^CTD, the compounds (5% v/v DMSO in all the samples, including the controls devoid of compounds), and 1 μM RecAPa* (FP Buffer in the negative control; 30 mM Hepes, 150 mM NaCl, pH 7.1). The initial screening was performed with two dilutions of the compounds (25 and 125 μg/mL). The FP signal was measured after a 1 h incubation at 37 °C by an EnVision MultiMode Plate Reader (PerkinElmer) equipped with opportune FP filters and mirrors. To obtain LexAPa ^CTD autoproteolysis percent inhibition, FP data were scaled from 0% (corresponding to the positive control sample) to 100% (negative control).
Compounds displaying an inhibition of at least 50% at the highest concentration and a rather consistent increase in activity at the two tested concentrations were selected as the hits.
The same FP assay was carried out on serial dilutions of selected compounds to determine the dose–response relationship. To evaluate the effect of a reducing environment, 2 mM Tris(2-carboxyethyl)-phosphine (TCEP) was added to the reaction mixtures. The FP signal of FlAsH-LexAPa ^CTD alone was detected for 5 min before adding the compounds. The system was monitored for an additional 5 min in the presence of the tested compounds in order to observe potential aggregation events. Then, RecAPa* was added, and the autoproteolysis reaction was followed for 1 h at 37 °C (1 reading per minute). FlAsH-LexAPa ^CTD autoproteolysis percent inhibition was calculated as mentioned above and plotted as a function of compound concentration. Experimental data fitting was performed with GraphPad Prism 8 to obtain the absolute IC50.

The nature of data set [3]: ESI-MS analysis of A12 in buffer. The class given is physicochemical. Conditions: 2 mM A12 in FP assay buffer, no DTT. How it is done: The same analysis was conducted after treatment of A12 with 2 mM DTT (Figure B). In this sample, the MS signals corresponding to the disulfide adduct were absent, leading to the conclusion that the dimerization of A12 by the formation of a disulfide bridge can occur under physiological conditions. When in monomeric form, the compound is likely degraded and/or not detectable by MS under the tested experimental conditions.
MS analysis was carried out on 5 μL samples of compound A12 (2 mM), of the proteins 6His-LexAPa and 6His-RecAPa (50 μM), and of the same proteins incubated with 2 mM A12 (2 h incubation at 25 °C, 10% v/v DMSO in 100 mM NaHCO3 pH 7.0). Aliquots of the latter samples were treated with 5 mM dithiothreitol (DTT) for 1 h at 25 °C before being buffer-exchanged in 100 mM NaHCO3 at pH 7.0. Samples were analyzed by an electrospray ionization (ESI) mass spectrometer equipped with a Xevo G2-XS ESI-Q-TOF mass spectrometer (Waters Corporation, Milford, Massachusetts, USA). Measurements were carried out at 1.5–1.8 kV capillary voltage and 30–40 V cone voltage.

T1 sequence (P37452 81-204): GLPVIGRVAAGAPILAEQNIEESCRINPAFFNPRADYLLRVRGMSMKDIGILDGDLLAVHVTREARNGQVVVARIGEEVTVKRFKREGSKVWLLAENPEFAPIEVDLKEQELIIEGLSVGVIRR

Take `O=C(O)CCNc1ccccc1S` [A12, 3-(2-sulfanylanilino)propanoic acid]: in data set [1], the “Cell viability compared to the untreated control” value is reported as “higher than 80%”. Further, in data set [2] (1 μM FlAsH-LexAPa CTD, 1 μM RecAPa*, 1 h at 37 °C, read-out: IC50 on RecA*Pa-induced LexAPa autoproteolysis (FP assay)), the IC50 (in general, the concentration that gives 50% inhibition) stood at 295 ± 12 µM. The “A12 inhibitory activity under reducing conditions compared to nonreducing” value in data set [2] (2 mM TCEP) is recorded as “significantly diminished”. Moreover, the inhibition (usually how much of the control response was suppressed) at 125 µg/mL in data set [2] (compound at 125 μg/mL, 1 h at 37 °C, read-out: LexA autoproteolysis inhibition in initial library screening) was more than 50%. Besides, in data set [3], the “Form of A12 in solution by MS” value was “mainly exists as a disulfide-bridged self-dimer in solution”.
